Reference: article PMC7560342, “In Vitro and In Vivo Evaluation of the Toxic Effects of Dodecylguanidine Hydrochloride” (Toxics, 2020)
Entries after “also recorded” stand apart in the source; their conditions may differ.

Key:
A549 cells = experiment: Cell membrane damage (LDH leakage) assay; format: cell-based, Human; details: 1–5000 μg/mL, 24 h
Protocol: Human adenocarcinomic alveolar epithelial (A549) cells were obtained from the Korea Cell Line Bank (Seoul, Korea). Cells were grown in RPMI 1640 medium (Thermo Fisher Scientific, Waltham, MA, USA), containing 10% heat-inactivated fetal bovine serum (Thermo Fisher Scientific, Waltham, MA, USA) and 1% penicillin-streptomycin (Thermo Fisher Scientific, Waltham, MA, USA) under standard cell culture conditions (37 °C, 5% CO2, and 90% humidity).
A549 cells (1 × 10^4 cells) were incubated in 96-well plates overnight, and various concentrations (1, 10, 100, 1000, and 5000 μg/mL) of the eight selected chemicals were added to the cell culture medium. After 24 h of incubation, cell morphology was observed by optical microscopy, and cell viability was evaluated using EZ-Cytox kit (DoGenBio, Seoul, Korea) by quantifying purple formazan crystals. The membrane integrity was examined using an EZ-lactate dehydrogenase (LDH) kit (DoGenBio, Seoul, Korea) to measure the LDH level released from the cytosol into the culture medium. Absorbance was measured using a microplate reader (Tecan, Salzburg, Austria) at a wavelength of 450 nm.

Sprague-Dawley rats = experiment: Bronchoalveolar lavage fluid (BALF) analysis after acute inhalation; format: in vivo, rat
Protocol: The inhalation aerosols of the DGH solutions were generated using an atomizer with a clean air flow of 250 L/min. […] In the acute toxicity test, all the rats in each group were sacrificed immediately after exposure. Temperature, humidity, air flow, and air pressure were monitored during the exposure using a Model VT3-X15 environmental controller (Sibata, Saitama, Japan). The concentration of DGH was analyzed by sampling the chamber air using a SIP-32L (Sibata, Saitama, Japan) and measuring the weight of the membranes (T60A20, Φ55). The mass median aerodynamic diameter (MMAD) and geometric standard deviation (GSD) of DGH in the exposure chamber were measured using an Andersen cascade impactor (AN-200, Sibata, Saitama, Japan).
BALF was obtained from the right lung by lavage (twice) with 3 mL phosphate buffered saline (PBS, pH 7.4, magnesium, and calcium free). The BALF samples were centrifuged (1500 rpm, 4 °C, 10 min) and the cell-free supernatant of the first lavage was used for the determination of LDH, total protein, and inflammatory cytokine levels. LDH activity was measured using the EZ-LDH kit (DoGenBio, Seoul, Korea). Total protein content was quantified using a BCA protein assay kit (iNtRON Biotechnology, Seoul, Korea). To evaluate the inflammatory cytokine levels in BALF, tumor necrosis factor-alpha (TNF-α), interleukin-6 (IL-6), interleukin-1 beta (IL-1β), […], and transforming growth factor-beta 1 (TGF-β1) were determined using a Quantikine® enzyme-linked immunosorbent assay kit (R&D Systems, Minneapolis, MN, USA), according to the manufacturer’s instructions. Cells in all lavages were resuspended in PBS, and the total cell count in BALF was quantified using a Vi-Cell® XR analyzer (Beckman Coulter, Brea, CA, USA). Differential cell counts were performed on cytospin preparations (Shadon, Pittsburgh, PA, USA), and the cells were stained with Diff-Quick (Fisher Scientific, Swedesboro, NJ, USA). Polymorphonuclear leukocytes (PMNs) in the BALF were counted using light microscopy (Olympus, Tokyo, Japan).

Sprague-Dawley (SD) rats = experiment: Histopathology of nasal cavity and lung after acute inhalation; format: in vivo, rat; details: High 68 mg/m^3, 4 h; for Lung: Cell infiltration, terminal bronchiole/alveolar duct, neutrophils/macrophages / Lung: Intraluminal cell debris, terminal bronchiole/alveolar duct / Lung: No specific lesion / Nasal cavity Level 1: Acute inflammation with necrosis, focal / Nasal cavity Level 1: Cell infiltration, lymphocytes, focal / Nasal cavity Level 1: No specific lesion / Nasal cavity Level 2: Acute inflammation with necrosis, focal / Nasal cavity Level 2: Cell infiltration, lymphocytes, focal / Nasal cavity Level 2: No specific lesion / Nasal cavity Level 3: Cell infiltration, lymphocytes, focal / Nasal cavity Level 3: No specific lesion / Nasal cavity Level 4: Cell infiltration, lymphocytes, focal / Nasal cavity Level 4: No specific lesion: cases (percentage) of 5 examined; for Lung: Cell infiltration, terminal bronchiole/alveolar duct, neutrophils/macrophages; Grade: minimal / Lung: Intraluminal cell debris, terminal bronchiole/alveolar duct; Grades: minimal / Nasal cavity Level 1: Acute inflammation with necrosis, focal; Grade: mild / Nasal cavity Level 1: Acute inflammation with necrosis, focal; Grade: minimal / Nasal cavity Level 1: Cell infiltration, lymphocytes, focal; Grade: minimal / Nasal cavity Level 2: Acute inflammation with necrosis, focal; Grade: mild / Nasal cavity Level 2: Acute inflammation with necrosis, focal; Grade: minimal / Nasal cavity Level 2: Cell infiltration, lymphocytes, focal; Grade: minimal / Nasal cavity Level 3: Cell infiltration, lymphocytes, focal; Grade: minimal / Nasal cavity Level 4: Cell infiltration, lymphocytes, focal; Grade: minimal: number of cases
Protocol: The inhalation aerosols of the DGH solutions were generated using an atomizer with a clean air flow of 250 L/min. For the acute inhalation exposure study, the rats were exposed to 7.8 mg/m^3, 23 mg/m^3, and 70 mg/m^3 DGH for 4 h in the low, middle, and high exposure groups, respectively, and the control rats were exposed to clean air. In the acute toxicity test, all the rats in each group were sacrificed immediately after exposure. Temperature, humidity, air flow, and air pressure were monitored during the exposure using a Model VT3-X15 environmental controller (Sibata, Saitama, Japan). The concentration of DGH was analyzed by sampling the chamber air using a SIP-32L (Sibata, Saitama, Japan) and measuring the weight of the membranes (T60A20, Φ55). The mass median aerodynamic diameter (MMAD) and geometric standard deviation (GSD) of DGH in the exposure chamber were measured using an Andersen cascade impactor (AN-200, Sibata, Saitama, Japan).
After the inhalation of DGH for 4 h, the animals were euthanized. After gross examination, the left lung and nasal cavity of the rats in the control and high-exposure groups were fixed in 10% neutral buffered formalin. The nasal cavity was decalcified with a decalcification solution and then cross-sectioned into four levels as follows: level 1 (posterior part of the upper incisors), level 2 (incisive papilla), level 3 (second palatine crest), level 4 (first upper molar teeth). Following routine tissue processing, the tissues were embedded in paraffin and sectioned into 3 μm thick sections. The tissue sections were stained with hematoxylin and eosin (H&E), and then examined under a light microscope (Olympus BX41, Tokyo, Japan). The lesions were graded according to severity by pathologists.

[1] = male rats, exposure groups, 4 h
[2] = rats, 8.6–68 mg/m^3, 4 h, vs control

Compound: CCCCCCCCCCCCN=C(N)N.Cl [DGH, Dodecylguanidine hydrochloride]
- Cell membrane damage (LDH leakage) (A549 cells): significant dose-dependent damage to the cell membrane
- IL-6 level in BALF compared to control groups (Sprague-Dawley rats; [1]): about seven times
- MIP-2 level in BALF compared to control groups (Sprague-Dawley rats; [1]): about five times
- Increase of ratio of PMNs in BALF (Sprague-Dawley rats; male rats, high 68 mg/m^3, 4 h): > 204 fold
- Increase of ratio of PMNs in BALF (Sprague-Dawley rats; male rats, middle 21.3 mg/m^3, 4 h): more than 38.7 fold
- Cytokines (MIP-2, TGF-β1, IL-1β, TNF-α, IL-6) in BALF (Sprague-Dawley rats; rats, 8.6–68 mg/m^3, 4 h): increased in a concentration-dependent manner
- LDH in BALF (Sprague-Dawley rats; [2]): increased in a concentration-dependent manner; also recorded: significantly increased in all the exposed groups
- PMNs in BALF (Sprague-Dawley rats; [2]): increased in a concentration-dependent manner; also recorded: significant increase
- Total protein in BALF (Sprague-Dawley rats; [2]): significantly increased in all the exposed groups
- Lung: Cell infiltration, terminal bronchiole/alveolar duct, neutrophils/macrophages (Sprague-Dawley (SD) rats; female): 3(60.0)
- Lung: Intraluminal cell debris, terminal bronchiole/alveolar duct (Sprague-Dawley (SD) rats; female): 1(20.0)
- Lung: No specific lesion (Sprague-Dawley (SD) rats; female): 1(20.0)
- Nasal cavity Level 1: Acute inflammation with necrosis, focal (Sprague-Dawley (SD) rats; female): 1(20.0)
- Nasal cavity Level 1: Cell infiltration, lymphocytes, focal (Sprague-Dawley (SD) rats; female): 0(0.00)
- Nasal cavity Level 1: No specific lesion (Sprague-Dawley (SD) rats; female): 4(80.0)
- Nasal cavity Level 2: Acute inflammation with necrosis, focal (Sprague-Dawley (SD) rats; female): 0(0.00)
- Nasal cavity Level 2: Cell infiltration, lymphocytes, focal (Sprague-Dawley (SD) rats; female): 0(0.00)
- Nasal cavity Level 2: No specific lesion (Sprague-Dawley (SD) rats; female): 5(100)
- Nasal cavity Level 3: Cell infiltration, lymphocytes, focal (Sprague-Dawley (SD) rats; female): 1(20.0)
- Nasal cavity Level 3: No specific lesion (Sprague-Dawley (SD) rats; female): 4(80.0)
- Nasal cavity Level 4: Cell infiltration, lymphocytes, focal (Sprague-Dawley (SD) rats; female): 2(40.0)
- Nasal cavity Level 4: No specific lesion (Sprague-Dawley (SD) rats; female): 3(60.0)
- Lung: Cell infiltration, terminal bronchiole/alveolar duct, neutrophils/macrophages; Grade: minimal (Sprague-Dawley (SD) rats; female): 3
- Lung: Intraluminal cell debris, terminal bronchiole/alveolar duct; Grades: minimal (Sprague-Dawley (SD) rats; female): 1
- Nasal cavity Level 1: Acute inflammation with necrosis, focal; Grade: mild (Sprague-Dawley (SD) rats; female): 0
- Nasal cavity Level 1: Acute inflammation with necrosis, focal; Grade: minimal (Sprague-Dawley (SD) rats; female): 1
- Nasal cavity Level 1: Cell infiltration, lymphocytes, focal; Grade: minimal (Sprague-Dawley (SD) rats; female): 0
- Nasal cavity Level 2: Acute inflammation with necrosis, focal; Grade: mild (Sprague-Dawley (SD) rats; female): 0
- Nasal cavity Level 2: Acute inflammation with necrosis, focal; Grade: minimal (Sprague-Dawley (SD) rats; female): 0
- Nasal cavity Level 2: Cell infiltration, lymphocytes, focal; Grade: minimal (Sprague-Dawley (SD) rats; female): 0
- Nasal cavity Level 3: Cell infiltration, lymphocytes, focal; Grade: minimal (Sprague-Dawley (SD) rats; female): 1
- Nasal cavity Level 4: Cell infiltration, lymphocytes, focal; Grade: minimal (Sprague-Dawley (SD) rats; female): 2
- Lung: Cell infiltration, terminal bronchiole/alveolar duct, neutrophils/macrophages (Sprague-Dawley (SD) rats; male): 5(100)
- Lung: Intraluminal cell debris, terminal bronchiole/alveolar duct (Sprague-Dawley (SD) rats; male): 1(20.0)
- Lung: No specific lesion (Sprague-Dawley (SD) rats; male): 0(0.00)
- Nasal cavity Level 1: Acute inflammation with necrosis, focal (Sprague-Dawley (SD) rats; male): 1(20.0)
- Nasal cavity Level 1: Cell infiltration, lymphocytes, focal (Sprague-Dawley (SD) rats; male): 0(0.00)
- Nasal cavity Level 1: No specific lesion (Sprague-Dawley (SD) rats; male): 4(80.0)
- Nasal cavity Level 2: Acute inflammation with necrosis, focal (Sprague-Dawley (SD) rats; male): 1(20.0)
- Nasal cavity Level 2: Cell infiltration, lymphocytes, focal (Sprague-Dawley (SD) rats; male): 0(0.00)
- Nasal cavity Level 2: No specific lesion (Sprague-Dawley (SD) rats; male): 4(80.0)
- Nasal cavity Level 3: Cell infiltration, lymphocytes, focal (Sprague-Dawley (SD) rats; male): 2(40.0)
- Nasal cavity Level 3: No specific lesion (Sprague-Dawley (SD) rats; male): 3(60.0)
- Nasal cavity Level 4: Cell infiltration, lymphocytes, focal (Sprague-Dawley (SD) rats; male): 0(0.00)
- Nasal cavity Level 4: No specific lesion (Sprague-Dawley (SD) rats; male): 5(100)
- Lung: Cell infiltration, terminal bronchiole/alveolar duct, neutrophils/macrophages; Grade: minimal (Sprague-Dawley (SD) rats; male): 5
- Lung: Intraluminal cell debris, terminal bronchiole/alveolar duct; Grades: minimal (Sprague-Dawley (SD) rats; male): 1
- Nasal cavity Level 1: Acute inflammation with necrosis, focal; Grade: mild (Sprague-Dawley (SD) rats; male): 1
- Nasal cavity Level 1: Acute inflammation with necrosis, focal; Grade: minimal (Sprague-Dawley (SD) rats; male): 0
- Nasal cavity Level 1: Cell infiltration, lymphocytes, focal; Grade: minimal (Sprague-Dawley (SD) rats; male): 0
- Nasal cavity Level 2: Acute inflammation with necrosis, focal; Grade: mild (Sprague-Dawley (SD) rats; male): 1
- Nasal cavity Level 2: Acute inflammation with necrosis, focal; Grade: minimal (Sprague-Dawley (SD) rats; male): 0
- Nasal cavity Level 2: Cell infiltration, lymphocytes, focal; Grade: minimal (Sprague-Dawley (SD) rats; male): 0
- Nasal cavity Level 3: Cell infiltration, lymphocytes, focal; Grade: minimal (Sprague-Dawley (SD) rats; male): 2
- Nasal cavity Level 4: Cell infiltration, lymphocytes, focal; Grade: minimal (Sprague-Dawley (SD) rats; male): 0
